In US20220304978A1, “INHIBITING MESANGIAL CELL ACTIVATION” (Chinook Therapeutics, Inc., priority 2019, published 2022):

Test system: kidney tissue of g-ddY mice
Experiment: Gene Set Enrichment Analysis (GSEA) hallmark gene sets, g-ddY kidney RNA-seq
Format: in vivo, mouse
Details: 30 mg/kg/day

CCCCN(CCCC)C(=O)CN1C[C@H](c2ccc3c(c2)OCO3)[C@@H](C(=O)O)[C@@H]1c1ccc(OC)cc1 [atrasentan, (2R,3R,4S)-4-(1,3-benzodioxol-5-yl)-1-[2-(dibutylamino)-2-oxoethyl]-2-(4-methoxyphenyl)pyrrolidine-3-carboxylic acid]
cell proliferation associated signaling (mitotic spindle and G2M checkpoint): reduced | inflammatory response signaling: reduced
